Laboratory results as given in patent US20090042949A1, “Indoles Useful in the Treatment of Inflammation” (priority 2005, published 2009).

Target: T1, mPGES-1 (Homo sapiens, UniProt O14684)
T1 construct: made in house; host or cells: E. coli
T1 sequence (O14684 1-152): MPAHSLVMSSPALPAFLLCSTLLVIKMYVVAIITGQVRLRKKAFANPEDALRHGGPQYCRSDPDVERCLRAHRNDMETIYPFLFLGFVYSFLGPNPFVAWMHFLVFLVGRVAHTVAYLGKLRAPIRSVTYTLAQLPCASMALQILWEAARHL
Experiment: mPGES-1 biological test (conversion of PGH2 to PGE2, HPLC analysis)
Assay type: biochemical
Settings: mPGES-1 expressed in E. coli, membrane fraction; 25 min preincubation with inhibitor, 60 s with PGH2, room temperature
Method: In the assay mPGES-1 catalyses the reaction where the substrate PGH2 is converted to PGE2. mPGES-1 is expressed in E. coli and the membrane fraction is dissolved in 20 mM NaPi-buffer pH 8.0 and stored at −80° C. In the assay mPGES-1 is dissolved in 0.1 M KPi-buffer pH 7.35 with 2.5 mM glutathione. The stop solution consists of H2O/MeCN (7/3), containing FeCl2 (25 mM) and HCl (0.15 M). The assay is performed at room temperature in 96-well plates. Analysis of the amount of PGE2 is performed with reversed phase HPLC (Waters 2795 equipped with a 3.9×150 mm C18 column). The mobile phase consists of H2O/MeCN (7/3), containing TFA (0.056%), and absorbance is measured at 195 nm with a Waters 2487 UV-detector.
The following is added chronologically to each well: • 1. 100 μL mPGES-1 in KPi-buffer with glutathione. Total protein concentration: 0.02 mg/mL. • 2. 1 μL inhibitor in DMSO. Incubation of the plate at room temperature for 25 minutes. • 3. 4 μL of a 0.25 mM PGH2 solution. Incubation of the plate at room temperature for 60 seconds. • 4. 100 μL stop solution. • 180 μL per sample is analyzed with HPLC.

SMILES	IC50 [nM]
CC(C)Oc1ccc(-n2c(C(=O)NS(C)(=O)=O)c(Cl)c3cc(-c4ccc(C(F)(F)F)cn4)ccc32)cc1 [Example 13, N-[3-Chloro-1-(4-isopropoxyphenyl)-5-(5-trifluoromethylpyridin-2-yl)indole-2-carbonyl]methanesulfonamide]	2700
CC(C)(C)c1ccc(-c2ccc3c(c2)cc(C(=O)NCCS(=O)(=O)O)n3-c2ccc(OC3CCCC3)cc2)cc1 [Example 2, 2-{[5-(4-tert-Butylphenyl)-1-(4-cyclopentyloxyphenyl)indole-2-carbonyl]-amino}ethanesulfonic acid]	660
CC(C)(C)c1ccc(-c2ccc3c(c2)cc(C(=O)Nn2cnnc2)n3-c2ccc(OC3CCCC3)cc2)cc1 [Example 12, 5-(4-tert-Butylphenyl)-1-(4-cyclopentyloxyphenyl)indole-2-carboxylic acid[1,2,4]triazol-4-ylamide]	550
CN(CC(=O)O)C(=O)c1cc2cc(-c3ccc(C(C)(C)C)cc3)ccc2n1-c1ccc(OC2CCCC2)cc1 [Example 5, {[5-(4-tert-Butylphenyl)-1-(4-cyclopentyloxyphenyl)indole-2-carbonyl]-methylamino}acetic acid]	740
CC(C)(C)c1ccc(-c2ccc3c(c2)cc(C(=O)NCC(=O)O)n3-c2ccc(OC3CCCC3)cc2)cc1 [Example 4, {[5-(4-tert-Butylphenyl)-1-(4-cyclopentyloxyphenyl)indole-2-carbonyl]-amino}acetic acid]	1900
